Assay results: US8937183B2, “Detection of hydrogen peroxide” (Promega Corporation, priority 2011, dated 2015)

Assay: Generation of bioluminescence from luciferin borates upon treatment with hydrogen peroxide (luciferase light reaction)
Format: biochemical
Description: In this example, luciferin borates were incubated with hydrogen peroxide, and luciferin generation was measured using a light reaction catalyzed by luciferase. An increase in light output (bioluminescence) as a result of treatment of the luciferin borates with hydrogen peroxide indicates generation of luciferin as a result of the reaction with hydrogen peroxide.
1 M phosphate solutions (either 6.8 g of KH2PO4 (Fisher) or 11.4 g of K2HPO4 (Sigma) were dissolved in Nanopure water to 1 M) were diluted 1:5 with Nanopure water to produce 200 mM phosphate solutions. 200 mM phosphate buffers at pH 6.87, 7.41, 7.73, 8.04, and 9.18 were prepared. 4 mg/ml solutions of PBI 3048, 4013, 4424 and 4425 (FIG. 1) in DMSO (Fluka 41641) were made from solid powder.
Into two 96-well white, solid bottom luminometer plates (Promega Z3291) (labeled “A” and “B”), 50 μl of 200 mM phosphate buffer pH 6.87 was added to wells A1-H2; 50 μl of 200 mM phosphate pH 7.41 was added to wells A3-H4; 50 μl of 200 mM phosphate buffer pH 7.73 was added to wells A5-H6; 50 μl of 200 mM phosphate buffer pH 8.04 was added to wells A7-H8; and 50 μl of 200 mM phosphate buffer pH 9.18 was added to wells A9-H10.
50 μl of 4 mg/ml PBI 4013 in DMSO was diluted to 1.25 ml with Nanopure water, and 25 μl added to wells A1-D10 of plate A. 50 μl of 4 mg/ml PBI 4424 was diluted to 1.25 ml with Nanopure water, and 25 μl added to E1-H10 of plate A. 50 μl of 4 mg/ml PBI 3048 was diluted to 1.25 ml with Nanopure water, and 25 μl added to A1-D10 of plate B. 50 μl of 4 mg/ml PBI 4425 was diluted to 1.25 ml with Nanopure water, and 25 μl added to E1-H10 of plate B. 25 μl of Nanopure water was added to rows A and E of both plates. 17 μl of Nanopure water was added to rows B and F of both plates; and 8 μl of Nanopure water was added to rows C and G of both plates
A hydrogen peroxide solution (30% hydrogen peroxide, Sigma H1009-5 ml) was diluted to 60 μM hydrogen peroxide with Nanopure water, and 25 μl of the 60 μM hydrogen peroxide was added to rows D and H of both plates; 17 μl of […] hydrogen peroxide was added to rows C and G of both plates; and 8 μl of […] hydrogen peroxide was added to rows B and F of both plates. Both plates A and B were then gently mixed for 70 minutes.
A bottle of Reconstitution Buffer with Esterase (Promega V144B) was thawed and used to reconstitute a Luciferin Detection Reagent (Promega V859B) to create a reconstituted Luciferin Detection Reagent (“LDR”). 15 ml of 1 M HEPES buffer, pH 7.5 was mixed with 25 ml of the LDR, and 80 μl added to wells A1-H10 of two new luminometer plates (“R1” and “R2”).
Following incubation, 20 μl of the contents of wells A1-H10 of plate A was transferred to the same wells in plate R1, and 20 μl of A1-H10 of plate B was transferred to the same wells in plate R2. Plate R1 and R2 were then incubated at room temperature for 15 minutes, and bioluminescence was measured with a GloMax® luminometer (Promega Corp).
Bioluminescence from duplicate wells was averaged, and the average relative light units (RLUs) from samples containing peroxide were compared to those from the samples not containing peroxide incubated at the same pH (Table 1).

average relative light units (bioluminescence) (H2O2 0 μM, phosphate buffer pH 6.87, 70 minutes): 392,535 RLU
average relative light units (bioluminescence) (H2O2 0 μM, phosphate buffer pH 7.41, 70 minutes): 418,478 RLU
average relative light units (bioluminescence) (H2O2 0 μM, phosphate buffer pH 7.73, 70 minutes): 470,830 RLU
average relative light units (bioluminescence) (H2O2 0 μM, phosphate buffer pH 8.04, 70 minutes): 561,030 RLU
average relative light units (bioluminescence) (H2O2 0 μM, phosphate buffer pH 9.18, 70 minutes): 819,156 RLU
average relative light units (bioluminescence) (H2O2 5 μM, phosphate buffer pH 6.87, 70 minutes): 521,375 RLU
average relative light units (bioluminescence) (H2O2 5 μM, phosphate buffer pH 7.41, 70 minutes): 794,181 RLU
average relative light units (bioluminescence) (H2O2 5 μM, phosphate buffer pH 7.73, 70 minutes): 1,200,842 RLU
average relative light units (bioluminescence) (H2O2 5 μM, phosphate buffer pH 8.04, 70 minutes): 1,831,013 RLU
average relative light units (bioluminescence) (H2O2 5 μM, phosphate buffer pH 9.18, 70 minutes): 3,834,248 RLU
average relative light units (bioluminescence) (H2O2 10 μM, phosphate buffer pH 6.87, 70 minutes): 717,216 RLU
average relative light units (bioluminescence) (H2O2 10 μM, phosphate buffer pH 7.41, 70 minutes): 1,302,514 RLU
average relative light units (bioluminescence) (H2O2 10 μM, phosphate buffer pH 7.73, 70 minutes): 2,057,780 RLU
average relative light units (bioluminescence) (H2O2 10 μM, phosphate buffer pH 8.04, 70 minutes): 3,137,287 RLU
average relative light units (bioluminescence) (H2O2 10 μM, phosphate buffer pH 9.18, 70 minutes): 6,426,397 RLU
average relative light units (bioluminescence) (H2O2 15 μM, phosphate buffer pH 6.87, 70 minutes): 833,785 RLU
average relative light units (bioluminescence) (H2O2 15 μM, phosphate buffer pH 7.41, 70 minutes): 1,709,044 RLU
average relative light units (bioluminescence) (H2O2 15 μM, phosphate buffer pH 7.73, 70 minutes): 2,713,251 RLU
average relative light units (bioluminescence) (H2O2 15 μM, phosphate buffer pH 8.04, 70 minutes): 4,193,451 RLU
average relative light units (bioluminescence) (H2O2 15 μM, phosphate buffer pH 9.18, 70 minutes): 7,447,757 RLU
light signal increase upon addition of hydrogen peroxide (in words) (all pH values 6.87 to 9.18): increased strongly
SMILES: O=C(O)C1CSC(c2nc3ccc(OCc4ccc(B(O)O)cc4)cc3s2)=N1 (stereo not drawn) [PBI 3048]
